Results reported in patent publication US10765687B2, “Methods and compounds to inhibit enveloped virus release” (Northwestern University, priority 2012, dated 2020).
Like-named read-outs stand apart in the source and are kept apart here.

What was measured:
[1] = system: ASLV virus like particles (VLPs); assay: ASLV VLP release from 293 cells, Western blot with anti-ASLV Gag antibody; assay type: cell-based; conditions: FIG. 6A, compared with untreated cells
Description: 293/E cells were cultured in DMEM supplemented with 10% fetal bovine serum, penicillin (1,000 units/ml), and streptomycin (1,000 μg/ml) to 50% confluence at 37° C. Expression of plasmids from p2036 was high in 293/E cells because these cells stably express the EBNA1 protein of EBV and the p2036 constructs contain the EBV FR plasmid maintenance element that EBNA 1 binds. Therefore 293/E cells were used when proteins expressed from p2036 were to be detected by western analysis. In all experiments, 24-well plates of 293/E cells were transfected with 0.5 μg of p2036-ASLV Gag with the X-treme Gene9 transfection reagent (Roche Diagnostics, Alameda, Calif., USA) according to the manufacturer's instructions. After 24 h after DNA transfection, the cells were washed with 1×DPS that contained CaCl2 (0.1 mM) and MgCl2 (1 mM) [Gibco #14040-133], and 1 ml of cell culture medium (10% FBS, 1% Penicillin/Streptomycin) containing CaCl2 (0.5 mM) and MgCl2 (5 mM) was added. […]
For the budding assay, both media and cell lysate fractions were collected. […] After blocking of the membrane with wash buffer (10 mM Tris-HCl, pH 8.0, 150 mM NaCl, and 0.1% Tween 20) containing 5% nonfat dry milk, ASLV Gag proteins were detected with an AMV MA (p19) directed monoclonal antibody (mAb) and an anti-mouse IgG-HRP secondary antibody for ECL (Denville Scientific; Metuchen, N.J.).

293 cells [2] = system: 293 cells
HIV-1 = HIV-1 release from T-cells in culture, HIV-1 CA protein in media by ELISA; conditions: T cells contacted with compound then infected with HIV-1
Description: These compounds were further evaluated as antiviral inhibitors of virus budding and release using the methods disclosed herein.

293 cells [3] = assay: Toxicity of inhibitor concentrations to cultured cells of the VLP release assay; conditions: concentrations of FIG. 6A

SMILES | Release of ASLV VLPs from cells [1] | Cell toxicity of inhibitor concentrations (293 cells [2]) | HIV-1 particle release (in words) (HIV-1) | Cell toxicity of inhibitor concentrations (293 cells [3])
Cl.NC(CO)C(=O)NNCc1ccc(O)c(O)c1O (racemic) [Benserazide Hydrochloride, (RS)-2-amino-3-hydroxy-N′-(2,3,4-trihydroxybenzyl) propanehydrazide hydrochloride] | budding defect | not cell toxic | significant reduction in HIV-1 particle release | 
CN(C)[C@@H]1C(O)=C(C(N)=O)C(=O)[C@@]2(O)C(=O)C3=C(O)c4c(O)cccc4[C@@](C)(O)[C@H]3[C@H](O)[C@@H]12 [Oxytetracycline, (4S,4aR,5S,5aR,6S,12aS)-4-(dimethylamino)-3,5,6,10,11,12a-hexahydroxy-6-methyl-1,12-dioxo-1,4,4a,5,5a,6,12,12a-octahydrotetracene-2-carboxamide] | budding defect |  | significant reduction in HIV-1 particle release | not cell toxic
